Patent publication US8765695B2, “Use of ginsenoside RG1, its metabolites ginsenoside RH1 and/or PPT” (priority 2007, dated 2014)
Marks after values point to notes of the source that are not given here.

What was measured:
[1] = system: sperms in tail of epididymis; experiment: Gossypol aspermatogenesis model: quality of sperms from tail of epididymis by CASA; format: in vivo,  male mice; conditions: 14th day
[2] = system: male mice; experiment: Test of sexual ethology: bestriding time and mating frequency of male mice with estral female mice; format: in vivo, Kunming mice
Description: Kunming male mice (age 10 weeks, weight body 32-36 g), Kunming female mice (age 10 weeks, weight body 30-34 g), as purchased from Laboratory Animal Center of Chinese Academy of Medical Sciences (with the number of certificate SCXK (Jing) 2005-0004), were placed in a clean grade animal house alternately in light and in darkness (12 h:12 h), while taking water and food freely. The test started after the mice had adapted to the environment in the animal house for 5 days. During the period of adapting to the environment, male mice and female mice were isolated from each other.
In order to correctly reflect the change of male mice in sexual function, we prepared estral female mice by ectomizing their ovaries and inducing them by application of external hormone. After anesthetized with chloral hydrate, female mice were subjected to the steps of ectomizing bilateral ovaries by dorsal approach, ligating uterine tube residue end, and suturing skin, followed by recuperating for one week. The induction by application of hormone was conducted by reference to the literature (Masayoshi Nomura, et al, Physiology & Behavior 91 (2007) 223-228), comprising the steps of subcutaneously injecting estradiol benzoate (30 μg per mouse, is) at 48 h prior to use, and subcutaneously injecting progesterone (500 μg per mouse, is) at 4 h prior to use, to thereby obtain estral female mice.
Estral female mice were put in a ratio of 2:1 to male mice inside a mating box in which male mice were placed. They were trained for consecutive 5 days, 12 min each day. When the mating reaction of male mice became stable, the mice were grouped with the consideration that the bestriding time in each group of mice was substantially the same, while discarding the mice that had relatively weak reaction and no reaction.
In darkness, ethological test was carried out in the rearing cage of male mice. Estral female mice and male mice were kept in a ratio of 2:1 inside the same box for 12 min, during which period the bestriding time and mating frequency of the male mice were observed.
All of the values were expressed by using mean value and standard error (M±SEM), the analytic method used was one-way analysis of variance (ANOVA), and the statistic results were expressed by double star method, i.e., *<0.05, **<0.01.

[3] = target: PDE5 (Homo sapiens, UniProt O76074); experiment: Inhibition effect on PDE5 (cGMP degradation, radioimmune autograph technique); format: biochemical; conditions: read-out: Inhibition rate on PDE5
[4] = 5 mg/kg every day + gossypol 50 mg/kg every other day
[5] = 10 mg/kg every day + gossypol 50 mg/kg every other day
[6] = 5 mg/kg, 1st day, 12 min observation
[7] = 10 mg/kg, 1st day, 12 min observation

**Q.** How did the Number of sperms [1, 4] turn out when `CC(C)=CCC[C@](C)(O)[C@H]1CC[C@]2(C)[C@@H]1[C@H](O)C[C@@H]1[C@@]3(C)CC[C@H](O)C(C)(C)[C@@H]3[C@@H](O)C[C@]12C` [Ppt] was run?
**A.** 141 ± 18** 10^6 · ml−1

**Q.** And the “Motility of sperms (A + B)” value ([1]; 5 mg/kg every day + gossypol)?
**A.** 38 ± 11 %

**Q.** And the “Viability rate of sperms” value ([1]; 5 mg/kg every day + gossypol)?
**A.** 55 ± 9 %

**Q.** What about the Number of sperms [1, 5] of the same compound?
**A.** 178 ± 54** 10^6 · ml−1

**Q.** What about the “Motility of sperms (A + B)” value ([1]; 10 mg/kg every day + gossypol) of the same compound?
**A.** 39 ± 9 %

**Q.** And the “Viability rate of sperms” value ([1]; 10 mg/kg every day + gossypol)?
**A.** 56 ± 7 %

**Q.** And the “bestriding time of mice” value ([2]; 5 mg/kg, 1st day)?
**A.** 3.3 ± 2.3 min

**Q.** And the “mating frequency of mice” value [2, 6]?
**A.** 11.4 ± 6.8

**Q.** What about the “bestriding time of mice” value ([2]; 5 mg/kg, 4th day) of the same compound?
**A.** 3.9 ± 4.2 min

**Q.** What about the “mating frequency of mice” value ([2]; 5 mg/kg, 4th day) of the same compound?
**A.** 15.4 ± 8.2

**Q.** And the “bestriding time of mice” value ([2]; 5 mg/kg, 8th day)?
**A.** 4.5 ± 3.8 min

**Q.** And the “mating frequency of mice” value ([2]; 5 mg/kg, 8th day)?
**A.** 27.4 ± 8.7

**Q.** What about the “bestriding time of mice” value ([2]; 5 mg/kg, 12th day) of the same compound?
**A.** 6.8 ± 3.3 min

**Q.** And the “mating frequency of mice” value ([2]; 5 mg/kg, 12th day)?
**A.** 28.2 ± 9.3

**Q.** And the “bestriding time of mice” value ([2]; 5 mg/kg, 14th day)?
**A.** 7.9 ± 4.4 min

**Q.** And the “mating frequency of mice” value ([2]; 5 mg/kg, 14th day)?
**A.** 29.5 ± 7.7

**Q.** And the “bestriding time of mice” value ([2]; 5 mg/kg, 16th day)?
**A.** 8.3 ± 3.1* min

**Q.** And the “mating frequency of mice” value ([2]; 5 mg/kg, 16th day)?
**A.** 33.5 ± 10.4

**Q.** What about the “bestriding time of mice” value ([2]; 5 mg/kg, 18th day) of the same compound?
**A.** 9.2 ± 3.8* min

**Q.** What about the “mating frequency of mice” value ([2]; 5 mg/kg, 18th day) of the same compound?
**A.** 39.2 ± 8.6*

**Q.** What about the “bestriding time of mice” value ([2]; 5 mg/kg, 20th day) of the same compound?
**A.** 9.1 ± 3.5* min

**Q.** And the “mating frequency of mice” value ([2]; 5 mg/kg, 20th day)?
**A.** 41.7 ± 7.4*

**Q.** And the “bestriding time of mice” value ([2]; 10 mg/kg, 1st day)?
**A.** 2.9 ± 3.4 min

**Q.** What about the “mating frequency of mice” value [2, 7] of the same compound?
**A.** 13.4 ± 6.3

**Q.** And the “bestriding time of mice” value ([2]; 10 mg/kg, 4th day)?
**A.** 3.3 ± 4.1 min

**Q.** What about the “mating frequency of mice” value ([2]; 10 mg/kg, 4th day) of the same compound?
**A.** 15.4 ± 8.4

**Q.** And the “bestriding time of mice” value ([2]; 10 mg/kg, 8th day)?
**A.** 5.1 ± 3.8 min

**Q.** And the “mating frequency of mice” value ([2]; 10 mg/kg, 8th day)?
**A.** 22.8 ± 9.6

**Q.** And the “bestriding time of mice” value ([2]; 10 mg/kg, 12th day)?
**A.** 7.2 ± 3.3 min

**Q.** And the “mating frequency of mice” value ([2]; 10 mg/kg, 12th day)?
**A.** 31.6 ± 8.4

**Q.** What about the “bestriding time of mice” value ([2]; 10 mg/kg, 14th day) of the same compound?
**A.** 8.4 ± 4.2 min

**Q.** And the “mating frequency of mice” value ([2]; 10 mg/kg, 14th day)?
**A.** 33.7 ± 8.5

**Q.** What about the “bestriding time of mice” value ([2]; 10 mg/kg, 16th day) of the same compound?
**A.** 9.4 ± 3.9* min

**Q.** What about the “mating frequency of mice” value ([2]; 10 mg/kg, 16th day) of the same compound?
**A.** 35.3 ± 9.3

**Q.** And the “bestriding time of mice” value ([2]; 10 mg/kg, 18th day)?
**A.** 9.4 ± 3.9* min

**Q.** And the “mating frequency of mice” value ([2]; 10 mg/kg, 18th day)?
**A.** 37.2 ± 8.3*

**Q.** What about the “bestriding time of mice” value ([2]; 10 mg/kg, 20th day) of the same compound?
**A.** 9.4 ± 3.1* min

**Q.** What about the “mating frequency of mice” value ([2]; 10 mg/kg, 20th day) of the same compound?
**A.** 40.2 ± 7.3*

**Q.** How did the Number of sperms [1, 4] turn out when `CC(C)=CCC[C@](C)(O)[C@H]1CC[C@]2(C)[C@@H]1[C@H](O)C[C@@H]1[C@@]3(C)CC[C@H](O)C(C)(C)[C@@H]3[C@@H](O[C@@H]3O[C@H](CO)[C@@H](O)[C@H](O)[C@H]3O)C[C@]12C` [Rh1, ginsenoside Rh1] was run?
**A.** 142 ± 24** 10^6 · ml−1

**Q.** And the “Motility of sperms (A + B)” value ([1]; 5 mg/kg every day + gossypol)?
**A.** 39 ± 8 %

**Q.** And the “Viability rate of sperms” value ([1]; 5 mg/kg every day + gossypol)?
**A.** 56 ± 10 %

**Q.** What about the Number of sperms [1, 5] of the same compound?
**A.** 143 ± 16** 10^6 · ml−1

**Q.** What about the “Motility of sperms (A + B)” value ([1]; 10 mg/kg every day + gossypol) of the same compound?
**A.** 39 ± 6 %

**Q.** What about the “Viability rate of sperms” value ([1]; 10 mg/kg every day + gossypol) of the same compound?
**A.** 52 ± 5 %

**Q.** And the “bestriding time of mice” value ([2]; 5 mg/kg, 1st day)?
**A.** 2.8 ± 3.2 min

**Q.** What about the “mating frequency of mice” value [2, 6] of the same compound?
**A.** 11.3 ± 4.9

**Q.** And the “bestriding time of mice” value ([2]; 5 mg/kg, 4th day)?
**A.** 3.5 ± 4.1 min

**Q.** What about the “mating frequency of mice” value ([2]; 5 mg/kg, 4th day) of the same compound?
**A.** 13.9 ± 3.3

**Q.** And the “bestriding time of mice” value ([2]; 5 mg/kg, 8th day)?
**A.** 4.1 ± 3.5 min

**Q.** And the “mating frequency of mice” value ([2]; 5 mg/kg, 8th day)?
**A.** 23.5 ± 5.7

**Q.** And the “bestriding time of mice” value ([2]; 5 mg/kg, 12th day)?
**A.** 6.2 ± 2.9 min

**Q.** And the “mating frequency of mice” value ([2]; 5 mg/kg, 12th day)?
**A.** 29.4 ± 4.8

**Q.** And the “bestriding time of mice” value ([2]; 5 mg/kg, 14th day)?
**A.** 8.6 ± 5.2 min

**Q.** And the “mating frequency of mice” value ([2]; 5 mg/kg, 14th day)?
**A.** 33.6 ± 6.1

**Q.** What about the “bestriding time of mice” value ([2]; 5 mg/kg, 16th day) of the same compound?
**A.** 8.7 ± 4.2* min

**Q.** And the “mating frequency of mice” value ([2]; 5 mg/kg, 16th day)?
**A.** 32.2 ± 5.3

**Q.** And the “bestriding time of mice” value ([2]; 5 mg/kg, 18th day)?
**A.** 8.9 ± 3.3* min

**Q.** What about the “mating frequency of mice” value ([2]; 5 mg/kg, 18th day) of the same compound?
**A.** 39.8 ± 9.3*

**Q.** What about the “bestriding time of mice” value ([2]; 5 mg/kg, 20th day) of the same compound?
**A.** 9.2 ± 3.4* min

**Q.** And the “mating frequency of mice” value ([2]; 5 mg/kg, 20th day)?
**A.** 38.1 ± 8.5*

**Q.** And the “bestriding time of mice” value ([2]; 10 mg/kg, 1st day)?
**A.** 3.6 ± 2.7 min

**Q.** And the “mating frequency of mice” value [2, 7]?
**A.** 9.7 ± 5.6

**Q.** What about the “bestriding time of mice” value ([2]; 10 mg/kg, 4th day) of the same compound?
**A.** 3.9 ± 3.8 min

**Q.** What about the “mating frequency of mice” value ([2]; 10 mg/kg, 4th day) of the same compound?
**A.** 14.3 ± 9.5

**Q.** And the “bestriding time of mice” value ([2]; 10 mg/kg, 8th day)?
**A.** 4.0 ± 3.5 min

**Q.** What about the “mating frequency of mice” value ([2]; 10 mg/kg, 8th day) of the same compound?
**A.** 25.7 ± 8.6

**Q.** And the “bestriding time of mice” value ([2]; 10 mg/kg, 12th day)?
**A.** 6.3 ± 2.6 min

**Q.** What about the “mating frequency of mice” value ([2]; 10 mg/kg, 12th day) of the same compound?
**A.** 28.4 ± 10.5

**Q.** What about the “bestriding time of mice” value ([2]; 10 mg/kg, 14th day) of the same compound?
**A.** 8.4 ± 3.1 min

**Q.** What about the “mating frequency of mice” value ([2]; 10 mg/kg, 14th day) of the same compound?
**A.** 32.2 ± 9.3

**Q.** What about the “bestriding time of mice” value ([2]; 10 mg/kg, 16th day) of the same compound?
**A.** 8.9 ± 3.7* min

**Q.** And the “mating frequency of mice” value ([2]; 10 mg/kg, 16th day)?
**A.** 34.1 ± 8.2

**Q.** What about the “bestriding time of mice” value ([2]; 10 mg/kg, 18th day) of the same compound?
**A.** 9.1 ± 3.8* min

**Q.** What about the “mating frequency of mice” value ([2]; 10 mg/kg, 18th day) of the same compound?
**A.** 36.4 ± 6.7*

**Q.** And the “bestriding time of mice” value ([2]; 10 mg/kg, 20th day)?
**A.** 9.3 ± 3.8* min

**Q.** What about the “mating frequency of mice” value ([2]; 10 mg/kg, 20th day) of the same compound?
**A.** 43.4 ± 7.3*

**Q.** Which inhibition at 0.0025 µM [3] does the source give for `CCCc1nn(C)c2c(=O)[nH]c(-c3cc(S(=O)(=O)N4CCN(C)CC4)ccc3OCC)nc12` [Sildenafil, reference compound] here?
**A.** 71.6%

**Q.** And the inhibition at 0.005 µM [3]?
**A.** 14.6%

**Q.** And the inhibition at 0.01 µM [3]?
**A.** 52.6%

**Q.** What about the inhibition at 0.02 µM [3] of the same compound?
**A.** 83.3%

**Q.** And the inhibition at 0.04 µM [3]?
**A.** 100%
